Common to all, as to assay: AK assay 384-well format, Prestwick library screening
For one assay, the system named is E. cloacae. Type of assay: cell-based, Enterobacter cloacae. The conditions noted are these: Enterobacter cloacae, 3 h, 50 μM final drug concentration.
The subject of another assay is E. coli. In kind it is cell-based, Escherichia coli. Conditions: Escherichia coli, 3 h, 50 μM final drug concentration.
Assay [1] concerns A. baumannii strain 98-37-09. Type of assay: cell-based, Acinetobacter baumannii. Conditions: Acinetobacter baumannii, 983709, 3 h, 50 μM final drug concentration.
The next assay deals with P. aeruginosa. Type of assay: cell-based, Pseudomonas aeruginosa. The conditions noted are these: Pseudomonas aeruginosa, 3 h, 50 μM final drug concentration.
Assay [2] has as its system S. aureus strain USA300-0114. Type of assay: cell-based, Staphylococcus aureus. The conditions noted are these: Staphylococcus aureus, USA300, 3 h, 50 μM final drug concentration.
In the next assay the test system is E. faecium. Type of assay: cell-based, Enterococcus faecium. Conditions: Enterococcus faecium, 3 h, 50 μM final drug concentration.
Another assay deals with K. pneumoniae. Type of assay: cell-based, Klebsiella pneumoniae. Conditions: Klebsiella pneumoniae, 3 h, 50 μM final drug concentration.

Results on 7 compounds are retold here after US10004701B2, “Methods and compositions for treating infection” (UNIVERSITY OF ROCHESTER, priority 2012, dated 2018).

Where a name gives a salt, the structure may show the parent alone. Read-outs that look alike come from different tables or passages of the source.

Consider `CN1C(=O)CC(c2ccccc2)C1=O` (stereo not shown) [Phensuximide], for which the fold induction at 50 µM in the assay on E. cloacae (planktonic E. cloacae, […], read-out: AK-based Prestwick library screening result, E. cloacae (fold increase in extracellular AK activity)) stood at 1.1; in the assay on E. coli (planktonic E. coli, […], read-out: AK-based Prestwick library screening result, E. coli (fold increase in extracellular AK activity)), 1; in assay [1] (planktonic A. baumannii, […], read-out: AK-based Prestwick library screening result, A. baumannii (fold increase in extracellular AK activity)) it was 0.8; in the assay on P. aeruginosa (planktonic P. aeruginosa, […], read-out: AK-based Prestwick library screening result, P. aeruginosa (fold increase in extracellular AK activity)), 0.7; in assay [2] (planktonic S. aureus, […], read-out: AK-based Prestwick library screening result, S. aureus (fold increase in extracellular AK activity)) it was 0.7; in the assay with E. faecium (planktonic E. faecium, […], read-out: AK-based Prestwick library screening result, E. faecium (fold increase in extracellular AK activity)), 0.9. The fold induction at 50 µM in the assay with K. pneumoniae (planktonic K. pneumoniae, […], read-out: AK-based Prestwick library screening result, K. pneumoniae (fold increase in extracellular AK activity)) came to 0.8.

Consider `CN(C)C(=O)C(CCN1CCC(O)(c2ccc(Cl)cc2)CC1)(c1ccccc1)c1ccccc1` [Loperamide hydrochloride], for which the fold induction at 50 µM with E. cloacae (planktonic E. cloacae, 384-well, […], read-out: AK-based Prestwick Library Screening Results: E. cloacae (increase in extracellular AK activity)) amounted to 1.5; in the assay with E. coli (planktonic E. coli, 384-well, […], read-out: AK-based Prestwick Library Screening Results: E. coli (increase in extracellular AK activity)), 1.4; in assay [1] (planktonic A. baumannii, 384-well, […], read-out: AK-based Prestwick Library Screening Results: A. baumannii (increase in extracellular AK activity)), 1.5; in the assay on P. aeruginosa (planktonic P. aeruginosa, 384-well, […], read-out: AK-based Prestwick Library Screening Results: P. aeruginosa (increase in extracellular AK activity)), 1.2; in assay [2] (planktonic S. aureus, 384-well, […], read-out: AK-based Prestwick Library Screening Results: S. aureus (increase in extracellular AK activity)), 1; with E. faecium (planktonic E. faecium, 384-well, […], read-out: AK-based Prestwick Library Screening Results: E. faecium (increase in extracellular AK activity)), 0.9. Also, in the assay on K. pneumoniae (planktonic K. pneumoniae, 384-well, […], read-out: AK-based Prestwick Library Screening Results: K. pneumoniae (increase in extracellular AK activity)), the fold induction at 50 µM came out at 0.9.

Turning to `COC(=O)C1=C(C)NC(C)=C(C(=O)OC(C)C)C1c1cccc2nonc12` (stereo not shown) [Isradipine], the fold induction at 50 µM in the assay with E. cloacae (planktonic E. cloacae, positive cutoff 3-fold increase, read-out: AK-based Prestwick library screening result, E. cloacae (fold increase in extracellular AK activity)) came out at 1.4; in the assay with E. coli (planktonic E. coli, positive cutoff 3-fold increase, read-out: AK-based Prestwick library screening result, E. coli (fold increase in extracellular AK activity)) it was 1.1; in assay [1] (planktonic A. baumannii, positive cutoff 3-fold increase, read-out: AK-based Prestwick library screening result, A. baumannii (fold increase in extracellular AK activity)) it was 1.2; in the assay with P. aeruginosa (planktonic P. aeruginosa, positive cutoff 3-fold increase, read-out: AK-based Prestwick library screening result, P. aeruginosa (fold increase in extracellular AK activity)), 1.1; in assay [2] (planktonic S. aureus, positive cutoff 3-fold increase, read-out: AK-based Prestwick library screening result, S. aureus (fold increase in extracellular AK activity)), 0.7; with E. faecium (planktonic E. faecium, positive cutoff 3-fold increase, read-out: AK-based Prestwick library screening result, E. faecium (fold increase in extracellular AK activity)) it was 1.1. Further, the fold induction at 50 µM with K. pneumoniae (planktonic K. pneumoniae, positive cutoff 3-fold increase, read-out: AK-based Prestwick library screening result, K. pneumoniae (fold increase in extracellular AK activity)) turned out to be 1.1.

`CC[C@H]1[C@@H]2C[C@H]3[C@@H]4N(C)c5ccccc5[C@]45C[C@@H]([C@H]2[C@H]5O)N3[C@@H]1O` [Ajmaline]: the fold induction at 50 µM in the assay with E. cloacae (planktonic, […], read-out: AK-based Prestwick Library Screening Results, E. cloacae (fold increase in extracellular AK activity)) was 1.6; in the assay with E. coli (planktonic, […], read-out: AK-based Prestwick Library Screening Results, E. coli (fold increase in extracellular AK activity)), 1.2; in assay [1] (planktonic, […], read-out: AK-based Prestwick Library Screening Results, A. baumannii (fold increase in extracellular AK activity)), 1.1; in the assay on P. aeruginosa (planktonic, […], read-out: AK-based Prestwick Library Screening Results, P. aeruginosa (fold increase in extracellular AK activity)), 1.1; in assay [2] (planktonic, […], read-out: AK-based Prestwick Library Screening Results, S. aureus (fold increase in extracellular AK activity)) it was 1; with E. faecium (planktonic, […], read-out: AK-based Prestwick Library Screening Results, E. faecium (fold increase in extracellular AK activity)), 1.1. Also, the fold induction at 50 µM in the assay with K. pneumoniae (planktonic, […], read-out: AK-based Prestwick Library Screening Results, K. pneumoniae (fold increase in extracellular AK activity)) is 0.9.

On to `Cc1nnc(NS(=O)(=O)c2ccc(N)cc2)s1` [Sulfamethizole], for which the fold induction at 50 µM with E. cloacae (planktonic, cutoff for positive-scoring molecules 3-fold increase, read-out: AK-based Prestwick Library Screening Results, E. cloacae (fold increase in extracellular AK activity)) was determined as 0.9; in the assay with E. coli (planktonic, cutoff for positive-scoring molecules 3-fold increase, read-out: AK-based Prestwick Library Screening Results, E. coli (fold increase in extracellular AK activity)) it was 1; in assay [1] (planktonic, cutoff for positive-scoring molecules 3-fold increase, read-out: AK-based Prestwick Library Screening Results, A. baumannii (fold increase in extracellular AK activity)), 1.4; with P. aeruginosa (planktonic, cutoff for positive-scoring molecules 3-fold increase, read-out: AK-based Prestwick Library Screening Results, P. aeruginosa (fold increase in extracellular AK activity)), 0.8; in assay [2] (planktonic, cutoff for positive-scoring molecules 3-fold increase, read-out: AK-based Prestwick Library Screening Results, S. aureus (fold increase in extracellular AK activity)), 0.7; with E. faecium (planktonic, cutoff for positive-scoring molecules 3-fold increase, read-out: AK-based Prestwick Library Screening Results, E. faecium (fold increase in extracellular AK activity)), 0.9. Moreover, the fold induction at 50 µM in the assay on K. pneumoniae (planktonic, cutoff for positive-scoring molecules 3-fold increase, read-out: AK-based Prestwick Library Screening Results, K. pneumoniae (fold increase in extracellular AK activity)) is 0.7.

Consider `NC[C@H]1O[C@H](O[C@H]2[C@H](O)[C@@H](O[C@H]3O[C@H](CO)[C@@H](O)[C@H](N)[C@H]3O)[C@H](N)C[C@@H]2N)[C@H](N)C[C@@H]1O` [Tobramycin], for which the fold induction at 50 µM with E. cloacae (planktonic, cutoff for positive 3-fold increase, read-out: AK-based Prestwick Library Screening Results, E. cloacae (fold increase in extracellular AK activity)) was 1.5; in the assay with E. coli (planktonic, cutoff for positive 3-fold increase, read-out: AK-based Prestwick Library Screening Results, E. coli (fold increase in extracellular AK activity)) it was 7.5; in assay [1] (planktonic, cutoff for positive 3-fold increase, read-out: AK-based Prestwick Library Screening Results, A. baumannii (fold increase in extracellular AK activity)) it was 5.7; in the assay on P. aeruginosa (planktonic, cutoff for positive 3-fold increase, read-out: AK-based Prestwick Library Screening Results, P. aeruginosa (fold increase in extracellular AK activity)), 17.1; in assay [2] (planktonic, cutoff for positive 3-fold increase, read-out: AK-based Prestwick Library Screening Results, S. aureus (fold increase in extracellular AK activity)) it was 1.1; in the assay with E. faecium (planktonic, cutoff for positive 3-fold increase, read-out: AK-based Prestwick Library Screening Results, E. faecium (fold increase in extracellular AK activity)) it was 0.9. In addition, the fold induction at 50 µM in the assay with K. pneumoniae (planktonic, cutoff for positive 3-fold increase, read-out: AK-based Prestwick Library Screening Results, K. pneumoniae (fold increase in extracellular AK activity)) is 2.

Take `CCN(CCCCOC(=O)c1ccc(OC)c(OC)c1)C(C)Cc1ccc(OC)cc1` (stereo not shown) [Mebeverine hydrochloride]: the fold induction at 50 µM with E. cloacae (planktonic E. cloacae, 384-well, cutoff for positive-scoring molecules 3-fold increase, read-out: AK-based Prestwick Library Screening Results: E. cloacae (increase in extracellular AK activity)) was 1.3; in the assay with E. coli (planktonic E. coli, 384-well, cutoff for positive-scoring molecules 3-fold increase, read-out: AK-based Prestwick Library Screening Results: E. coli (increase in extracellular AK activity)), 1.3; in assay [1] (planktonic A. baumannii, 384-well, cutoff for positive-scoring molecules 3-fold increase, read-out: AK-based Prestwick Library Screening Results: A. baumannii (increase in extracellular AK activity)), 1.4; in the assay with P. aeruginosa (planktonic P. aeruginosa, 384-well, cutoff for positive-scoring molecules 3-fold increase, read-out: AK-based Prestwick Library Screening Results: P. aeruginosa (increase in extracellular AK activity)), 1.1; in assay [2] (planktonic S. aureus, 384-well, cutoff for positive-scoring molecules 3-fold increase, read-out: AK-based Prestwick Library Screening Results: S. aureus (increase in extracellular AK activity)) it was 1.1; in the assay with E. faecium (planktonic E. faecium, 384-well, cutoff for positive-scoring molecules 3-fold increase, read-out: AK-based Prestwick Library Screening Results: E. faecium (increase in extracellular AK activity)), 1. Moreover, the fold induction at 50 µM in the assay with K. pneumoniae (planktonic K. pneumoniae, 384-well, cutoff for positive-scoring molecules 3-fold increase, read-out: AK-based Prestwick Library Screening Results: K. pneumoniae (increase in extracellular AK activity)) was determined as 1.
